Where “and” joins values, the source holds several entries; their conditions need not be identical. Identical values can stand only once. Each block holds one compound with its values, some of them ahead of it.
Columns and labels:
[1] = Drug product stability (film-coated tablets, tablet cores, blends, binary mixtures): content of DMP433 on storage; format: physicochemical
Method: The experiments were packed in aluminium bags.
Blends and compressed (compacted) mixtures of drug substance with the excipients crospovidone (Type A) and microcrystalline cellulose with standard and low nitrite content, and low substituted hydroxypropyl cellulose (L-HPC) from the drug product composition were subjected to accelerated storage conditions (40° C. and 50° C.) for periods up to 1 month. […]
Binary mixtures were prepared in the same portion as present in the formulation. The samples were packed in alu bags. […]
2.8. Sample solution-ribociclib FCT (KISQALI®) • 1. Grind and homogenize 10 tablets (IKA mill can be used). • 2. Into a 10 mL amber volumetric flask accurately about 180 mg of tablet powder (corresponding to 80 mg of ribociclib free base). • 3. Add solvent (50% MeOH) up to ⅔ of flask volume. Vortex the sample for 1 minute and shake on a mechanical shaker for at least 15 min. Fill to volume with solvent and use vortex for 1 minute. • 4. Filter through 0.2 μm PVDF or PTFE filter into a HPLC amber vial, discard the first 0.5 mL. […]
The content of DMP433 was analysed. […]

[2] = Validation of the HPLC-HRMS method for N-nitroso-ribociclib (precision, accuracy, linearity, LOQ, stability of standard and sample solutions)
Method: For the purpose of this validation only, the 100% target limit was set at 3.75 ppm (1500 ng NRR/400 mg ribociclib free base).
Six replicates of the “Sample solution” were prepared according to the procedure described above and tested on the same day. The results are expressed as ppm of NNR with regard to ribociclib free base (μg NNR/g ribociclib free base)
Two series of six replicates of the “Sample solutions” were prepared according to the procedure described above and tested by two different analysts, on two different days, using different LC/MS systems and different columns. The results are expressed as ppm of NNR with regard to ribociclib free base (μg NNR/g ribociclib free base)
Three replicates of calibration standard solutions L1 (c=0.5 ng/ml) and L6 (c=100 ng/ml) were prepared according to the procedure described above. Solutions were stored in the dark at room temperature (autosampler (AS) vials). After a period of time, the solutions were reanalyzed. The stability of standard solutions is evaluated by determining the relative difference between the responses […] The results are expressed as concentration in ng/ml, determined from calibration curve in each sequence (time point).
Three replicates of Sample solution were prepared according to AP. The replicates were analysed at t=0 h and after app. 24 hours and 48 hours of storage in vials AS at room temperature. The results are expressed as ppm of NNR wrt ribociclib free base. (μg NNR/g ribociclib free base).
In addition, FCT samples stored in flasks on the bench were filtered at defined time point and analysed. For 48 hours stability, composite samples (from Accuracy) were used.
Sample solutions were prepare according to the procedure described above using 10 mL, 25 mL and 50 mL flasks, three replicates for each volume. Results for 25 mL and 50 mL were compared to 10 mL volume that is prescribed in the AP. The results are expressed as ppm of NNR with regard to ribociclib free base (μg NNR/g ribociclib free base)
For ribociclib FCT, one composite sample preparation and three replicates of spiked composite sample solutions (prepared as described above) were prepared and tested on the same day.
The samples (drug substance or composite sample) were spiked at 0.5 ng/ml (0.0625 ppm), 30 ng/mlL (3.75 ppm) and 100 ng/ml (12.5 ppm) levels. Amount of NNR present in the unspiked sample was subtracted and recoveries were calculated as a ratio between amounts found and amounts added.
In each sequence, calibration solution L1 was injected six times as part of SST test (Repeatability of injections) and the average response was taken for the calculation of calibration curve. Linear regression was weighed with 1/amount.
Amount of NNR present in the unspiked sample was subtracted (see above) and RSD of corrected amounts calculated.

[3] = DSC, heating rate 10 ° C./min (with pinhole), cited from earlier work
[4] = DMP433 (N-nitroso-ribociclib) content in ribociclib base (B10) and ribociclib succinate (B12, drug substance) batches and process experiments, LC-MS/MS or HPLC-HRMS; format: physicochemical; conditions: for DMP433 in LEE011-B12 (IP): B10 Raybow batch 805193A078
Source text: The method of testing for the presence and/or total amount of nitrosamines (such as the presence and/or total amount of N-nitroso-ribociclib in free or salt form) that is used in the methods of the invention may be any method which allows for the detection of nitrosamines in a composition. For example, the method may involve the Griess test described above. In such a method, the nitrosamines may be first denitrosated (e.g., by photolysis) to form a nitrite, which is then detected in the Griess test. Alternatively, the method may include high performance liquid chromatography (HPLC)- and/or gas chromatography (GC)-mass spectroscopy. An example of a method of testing for the presence and amount of nitrosamines (namely N-nitroso-ribociclib) is provided herein as Example 14. […]
2.7. […] Dissolve the substance using vortex and fill to volume with solvent (50% MeOH). • 3. Filter through 0.2 μm PVDF (polyvinylidene difluoride) or PTFE (polytetrafluoroethylene) filter into a HPLC amber vial, discard the first 0.5 ml.
A calibration curve for DMP433 is created, using calibration standard solutions L1-L6, and expressing the relationship between responses (peak areas) and standard concentrations (ng/ml). For L1, the average of 6 injections is used. Linear regression is weighed with 1/amount. […]

[5] = NDMA content in LEE011-B12 (IP) after ion exchange resin treatment (option 2 process); format: physicochemical; conditions: (n.d.)
[6] = Nitrite content (ion chromatography; LC-FLD with DAN derivatisation; Griess test) in drug substance, intermediates, reagents, solvents, filters, excipients; format: physicochemical; conditions: additional batches of ribociclib base LEE011-B10 (IP-1)
How it was run: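 Nitrite measured by Griess reaction (sulfanilamide diazotisation, N-(1-naphthyl)ethylenediamine azo coupling, spectrophotometric read) or by DAN derivatisation with C18 HPLC-fluorescence (10 mM KH2PO4 pH 8.0/methanol). About 1000 mg sample in 10 mL methanol/water 1:1; comparison standard ≈100 ppb nitrite.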

SMILES: CN(C)C(=O)c1cc2cnc(Nc3ccc(N4CCNCC4)cn3)nc2n1C1CCCC1.O=C(O)CCC(=O)O [DS (B699003AA) compact]
DMP433 content ([1]; binary studies of drug substance with excipients, T0): 0.7 ppm
DMP433 content ([1]; binary studies, 40° C., T 2 Weeks): 0.9 ppm
DMP433 content ([1]; binary studies, 50° C., T 1 Month): 1.1 ppm
DMP433 content ([1]; binary studies, 50° C., T 2 Weeks): 0.8 ppm

SMILES: CN(C)C(=O)c1cc2cnc(Nc3ccc(N4CCNCC4)cn3)nc2n1C1CCCC1.O=C(O)CCC(=O)O [Ribociclib Succinate Drug Substance]
NNR Amount found (ppm) ([2]; level S0, unspiked): 0.3328 ppm and 0.3246 ppm and 0.3256 ppm
NNR Amount found (ppm) ([2]; level S1, spiked 0.0625 ppm): 0.3754 ppm and 0.3778 ppm and 0.3796 ppm and 0.3774 ppm and 0.3781 ppm and 0.3824 ppm
NNR Amount found (ppm) ([2]; level S2, spiked 3.75 ppm): 3.5823 ppm and 3.7302 ppm and 3.8822 ppm
NNR Amount found (ppm) ([2]; level S3, spiked 12.5 ppm): 11.0295 ppm and 11.6248 ppm and 11.8859 ppm

SMILES: CN(C)C(=O)c1cc2cnc(Nc3ccc(N4CCNCC4)cn3)nc2n1C1CCCC1.O=C(O)CCC(=O)O [ribociclib succinate Form E]
Endothermic onset [3]: 210.0 °C
Enthalpy ([3]; melting/decomposition, for information only): 194.8 J/g

SMILES: CN(C)C(=O)c1cc2cnc(Nc3ccc(N4CCNCC4)cn3)nc2n1C1CCCC1.O=C(O)CCC(=O)O [DS (B699003AA) (compact)]
DMP433 content ([1]; T0, binary mixtures/blends/compacts, alu bags): 0.7 ppm
DMP433 content ([1]; T 1 m (50° C./75% RH), alu bags): 1.1 ppm
DMP433 content ([1]; T 2 w (40° C./75% RH), alu bags): 0.9 ppm
DMP433 content ([1]; T 2 w (50° C./75% RH), alu bags): 0.8 ppm

SMILES: CN(C)C(=O)c1cc2cnc(Nc3ccc(N4CCNCC4)cn3)nc2n1C1CCCC1 [Batch B704193]
DMP433 [ppb] ([4]; additional batches of ribociclib base LEE011-B10 (IP-1)): 57 ppb
DMP433 [ppm] LOQ (0.0625 ppm) ([4]; ribociclib base (LEE011 B10)): LOQ
DMP433 [ppm], result in brackets (extrapolation, estimate of actual value below LOQ) ([4]; ribociclib base (LEE011 B10)): 0.006 ppm
Nitrite [ppm] LOD (1 ppm) [6]: <LOD

Continued, in another order:

depletion of DMP433 in the ribociclib succinate (B12) crystal by additional washing ([4]; 3 washes vs 2 washes of isopropanol): about 38%
DMP433 in LEE011-B12 (IP) ([4]; resin loading vs B10 20 w/w %, option 2 process): 220 ppb
DMP433 in LEE011-B12 (IP) ([4]; resin loading vs B10 50 w/w %, wet cake): 211 ppb
DMP433 in LEE011-B12 (IP) ([4]; resin loading vs B10 100 w/w %, wet cake): 238 ppb
NDMA in LEE011-B12 (IP) ([5]; resin loading vs B10 20 w/w %): <100 ppb
NDMA in LEE011-B12 (IP) ([5]; resin loading vs B10 50 w/w %): <100 ppb
NDMA in LEE011-B12 (IP) ([5]; resin loading vs B10 100 w/w %): <100 ppb
SMILES: CN(C)C(=O)c1cc2cnc(Nc3ccc(N4CCNCC4)cn3)nc2n1C1CCCC1.O=C(O)CCC(=O)O [Ribociclib succinate]

NNR Average (ppm), Ruggedness ([2]; n = 6): 0.241 ppm
NNR Total average (ppm) ([2]; n = 12, intermediate precision): 0.240 ppm
SMILES: CN(C)C(=O)c1cc2cnc(Nc3ccc(N4CCNCC4)cn3)nc2n1C1CCCC1.O=C(O)CCC(=O)O [ribociclib succinate drug substance]
NNR (ppm), Ruggedness, single replicate ([2]; second analyst, day, LC/MS system and column, replicates R1-R6): 0.287 ppm and 0.243 ppm and 0.244 ppm and 0.176 ppm and 0.262 ppm and 0.235 ppm

Source: patent US20250319032A1, “PHARMACEUTICAL COMPOSITIONS OF RIBOCICLIB” (Novartis AG, priority 2024, published 2025)
